From ChEMBL document CHEMBL3045183, “Bioefficacy of violacein against Asian armyworm Spodoptera litura Fab. (Lepidoptera: Noctuidae)” (2012)
In brackets after ≈: the same amount, converted by molar mass. Activity calls are given as the source filed them. The rule behind the calls is not given here.

How the values were obtained:
Chironomus riparius = assay: Larvicidal activity against Chironomus riparius; format: functional
Spodoptera litura [1] = assay: Antifeedant activity against Spodoptera litura third-instar larva fed on 125 ppm compound pre-treated castor leaf disks measured after 24 hr by leaf-disk no-choice method (reference value: 2.09 +/- 0.94%); format: functional
Spodoptera litura [2] = assay: Pupicidal activity Spodoptera litura third-instar larva fed on 125 ppm compound pre-treated castor leaf disks for 24 hr followed by larval maintenance on fresh castor leaves until pupae formation assessed as pupal mortality (reference value: 8.0 +/- 4.47%); format: functional
Spodoptera litura [3] = assay: Antifeedant activity against Spodoptera litura third-instar larva fed on 250 ppm compound pre-treated castor leaf disks measured after 24 hr by leaf-disk no-choice method (reference value: 2.09 +/- 0.94%); format: functional
Spodoptera litura [4] = assay: Larvicidal activity Spodoptera litura third-instar larva fed on 1000 ppm compound pre-treated castor leaf disks for 24 hr followed by larval maintenance on fresh castor leaves assessed as insect mortality measured after 96 hr; format: functional
Spodoptera litura [5] = assay: Antifeedant activity against Spodoptera litura third-instar larva fed on compound pre-treated castor leaf disks measured after 24 hr by leaf-disk no-choice method (reference value: 2.09 +/- 0.94%); format: functional; details: for LC50: Spodoptera litura, foliar
Spodoptera litura [6] = assay: Antifeedant activity against Spodoptera litura third-instar larva fed on 1000 ppm compound pre-treated castor leaf disks measured after 24 hr by leaf-disk no-choice method (reference value: 2.09 +/- 0.94%); format: functional
Spodoptera litura [7] = assay: Larvicidal activity Spodoptera litura third-instar larva fed on 125 ppm compound pre-treated castor leaf disks for 24 hr followed by larval maintenance on fresh castor leaves assessed as insect mortality measured after 96 hr; format: functional
Spodoptera litura [8] = assay: Insecticidal activity Spodoptera litura third-instar larva fed on 125 ppm compound pre-treated castor leaf disks for 24 hr followed by larval maintenance on fresh castor leaves assessed as total mortality (reference value: 8%); format: functional
Spodoptera litura [9] = assay: Pupicidal activity Spodoptera litura third-instar larva fed on 250 ppm compound pre-treated castor leaf disks for 24 hr followed by larval maintenance on fresh castor leaves until pupae formation assessed as pupal mortality (reference value: 8.0 +/- 4.47%); format: functional
Spodoptera litura [10] = assay: Larvicidal activity Spodoptera litura third-instar larva fed on 250 ppm compound pre-treated castor leaf disks for 24 hr followed by larval maintenance on fresh castor leaves assessed as insect mortality measured after 96 hr; format: functional
Spodoptera litura [11] = assay: Antifeedant activity against Spodoptera litura third-instar larva fed on 500 ppm compound pre-treated castor leaf disks measured after 24 hr by leaf-disk no-choice method (reference value: 2.09 +/- 0.94%); format: functional
Spodoptera litura [12] = assay: Larvicidal activity Spodoptera litura third-instar larva fed on 500 ppm compound pre-treated castor leaf disks for 24 hr followed by larval maintenance on fresh castor leaves assessed as insect mortality measured after 96 hr; format: functional
Spodoptera litura [13] = assay: Larvicidal activity Spodoptera litura third-instar larva fed on compound pre-treated castor leaf disks for 24 hr followed by larval maintenance on fresh castor leaves assessed as insect mortality measured after 96 hr; format: functional; details: for LC50: Spodoptera litura, foliar
Spodoptera litura [14] = assay: Insecticidal activity Spodoptera litura third-instar larva fed on 250 ppm compound pre-treated castor leaf disks for 24 hr followed by larval maintenance on fresh castor leaves assessed as total mortality (reference value: 8%); format: functional
Spodoptera litura [15] = assay: Pupicidal activity Spodoptera litura third-instar larva fed on 1000 ppm compound pre-treated castor leaf disks for 24 hr followed by larval maintenance on fresh castor leaves until pupae formation assessed as pupal mortality (reference value: 8.0 +/- 4.47%); format: functional
Spodoptera litura [16] = assay: Insecticidal activity Spodoptera litura third-instar larva fed on 1000 ppm compound pre-treated castor leaf disks for 24 hr followed by larval maintenance on fresh castor leaves assessed as induction of abnormalities; format: functional, organism-based
Spodoptera litura [17] = assay: Insecticidal activity Spodoptera litura third-instar larva fed on 500 ppm compound pre-treated castor leaf disks for 24 hr followed by larval maintenance on fresh castor leaves assessed as total mortality (reference value: 8%); format: functional
Helicoverpa armigera = assay: Antifeedant activity against Helicoverpa armigera at 1000 ppm; format: functional
Spodoptera litura [18] = assay: Pupicidal activity Spodoptera litura third-instar larva fed on 500 ppm compound pre-treated castor leaf disks for 24 hr followed by larval maintenance on fresh castor leaves until pupae formation assessed as pupal mortality (reference value: 8.0 +/- 4.47%); format: functional
Spodoptera litura [19] = assay: Insecticidal activity Spodoptera litura third-instar larva fed on 1000 ppm compound pre-treated castor leaf disks for 24 hr followed by larval maintenance on fresh castor leaves assessed as total mortality (reference value: 8%); format: functional

Compound `[C-]#[N+][C@@H]1[C@H]2c3c[nH]c4cccc(c34)C(C)(C)[C@H]2CC[C@@]1(C)C=C` [12-EPI-HAPALINDOLE J ISONITRILE] has an Activity (Chironomus riparius) of 100%.

With `C/C=C(\C)C(=O)O[C@H]1C[C@@H](OC(C)=O)[C@@]2(C(=O)OC)CO[C@H]3[C@@H](O)[C@@](C)([C@]45O[C@@]4(C)[C@@H]4C[C@H]5O[C@@H]5OC=C[C@@]54O)[C@H]4[C@]1(CO[C@]4(O)C(=O)OC)[C@@H]32` [AZADIRACHTIN A] the AFI (Spodoptera litura [1]) was 49.67%, the mortality (Spodoptera litura [2]) was 28% and the AFI (Spodoptera litura [3]) was 61.31%. It also gave a mortality (Spodoptera litura [4]) of 100%, an LC90 (Spodoptera litura [5]) of 3278.46 ppm and an LC50 (Spodoptera litura [5]) of 134 µg/mL (≈ 186 µM). For the same compound, the AFI (Spodoptera litura [6]) was 79.41%, the mortality (Spodoptera litura [7]) was 57.33% and the mortality (Spodoptera litura [8]) was 85.33%. It also gave a mortality (Spodoptera litura [9]) of 28%, a mortality (Spodoptera litura [10]) of 70.21% and an AFI (Spodoptera litura [11]) of 70.49%. For the same compound, the mortality (Spodoptera litura [12]) was 93.55%, the LC90 (Spodoptera litura [13]) was 412.78 ppm and the LC50 (Spodoptera litura [13]) was 119 µg/mL (≈ 165 µM). For the same compound, the mortality (Spodoptera litura [14]) was 98.28%.

`O=C1NC(c2c[nH]c3ccc(O)cc23)=C/C1=C1\C(=O)Nc2ccccc21` [VIOLACEIN] gave an AFI (Spodoptera litura [1]) of 28.66%, a mortality (Spodoptera litura [2]) of 22% and an AFI (Spodoptera litura [3]) of 39.69%. For the same compound, the mortality (Spodoptera litura [15]) was 22%, the Activity (Spodoptera litura [16]) was “Active” and the mortality (Spodoptera litura [4]) was 77.1%. The mortality (Spodoptera litura [17]) was 89.58%, the LC90 (Spodoptera litura [5]) was 3649.91 ppm and the LC50 (Spodoptera litura [5]) was 392 µg/mL (≈ 1140 µM). For the same compound, the AFI (Spodoptera litura [6]) was 72.46%, the mortality (Spodoptera litura [7]) was 29.11% and the AFI (Helicoverpa armigera) was greater than 80%. It also gave a mortality (Spodoptera litura [8]) of 51.11%, a mortality (Spodoptera litura [9]) of 24% and a mortality (Spodoptera litura [10]) of 53.99%. It also gave an AFI (Spodoptera litura [11]) of 55.16%, a mortality (Spodoptera litura [12]) of 68.88% and a mortality (Spodoptera litura [18]) of 20.7%. It also gave a mortality (Spodoptera litura [19]) of 99.1%, an LC90 (Spodoptera litura [13]) of 2016.71 ppm and an LC50 (Spodoptera litura [13]) of 255 µg/mL (≈ 743 µM). The mortality (Spodoptera litura [14]) was 77.99%.
